{"source": "patent US11358949B2", "about": "“Carbamate and urea compounds as multikinase inhibitors” (ANGEX PHARMACEUTICAL, INC., priority 2017, dated 2022)", "key": {"AXL": {"molecular_target": "T1, AXL (Homo sapiens, UniProt P30530)", "T1 sequence (P30530 26-894)": "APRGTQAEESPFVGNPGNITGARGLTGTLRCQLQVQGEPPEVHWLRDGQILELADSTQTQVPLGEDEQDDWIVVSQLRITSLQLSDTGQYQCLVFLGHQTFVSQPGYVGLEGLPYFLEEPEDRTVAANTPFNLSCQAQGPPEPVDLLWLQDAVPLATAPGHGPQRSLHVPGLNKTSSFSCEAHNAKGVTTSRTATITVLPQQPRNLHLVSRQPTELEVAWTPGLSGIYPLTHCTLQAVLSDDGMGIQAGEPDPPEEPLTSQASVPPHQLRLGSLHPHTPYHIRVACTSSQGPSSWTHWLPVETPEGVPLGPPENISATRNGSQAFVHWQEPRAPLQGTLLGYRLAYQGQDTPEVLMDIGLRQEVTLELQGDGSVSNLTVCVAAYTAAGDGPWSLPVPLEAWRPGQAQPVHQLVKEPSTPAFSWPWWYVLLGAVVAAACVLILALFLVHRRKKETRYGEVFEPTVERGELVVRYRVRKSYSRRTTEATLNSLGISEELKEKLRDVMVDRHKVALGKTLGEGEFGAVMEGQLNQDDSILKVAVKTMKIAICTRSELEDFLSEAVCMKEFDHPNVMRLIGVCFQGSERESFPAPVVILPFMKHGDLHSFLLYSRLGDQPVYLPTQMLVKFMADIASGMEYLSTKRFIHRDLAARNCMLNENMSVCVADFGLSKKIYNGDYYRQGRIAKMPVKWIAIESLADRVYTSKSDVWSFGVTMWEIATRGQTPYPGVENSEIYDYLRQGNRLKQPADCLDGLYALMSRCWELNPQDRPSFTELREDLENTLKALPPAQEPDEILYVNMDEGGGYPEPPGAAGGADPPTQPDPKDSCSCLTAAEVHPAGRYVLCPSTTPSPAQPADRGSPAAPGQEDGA", "assay": "HotSpot Kinase Assay, AXL"}, "BRK": {"molecular_target": "BRK (Homo sapiens, UniProt Q13882)", "assay": "HotSpot Kinase Assay, BRK", "procedure": "(§1) Specifically, for each reaction, kinase and substrate were mixed in a pH 7.5 buffer containing 20 mM HEPES, 10 mM MgCl2, 1 mM EGTA [Ethylene glycol-bis(2-aminoethylether)-N,N,N′,N′-tetraacetic acid], 0.02% Brij35, 0.02 mg/mL BSA (Bovine Serum Albumin), 0.1 mM Na3VO4, 2 mM DTT, and 1% DMSO. Compounds were then added to each reaction mixture. After a 20-min incubation, ATP (Sigma-Aldrich) and [γ-^33P] ATP (PerkinElmer) were added at a final total concentration of 100 μM. Reactions were carried out at room temperature for 2 hours and spotted onto P81 ion exchange cellulose chromatography paper (Whatman). […] The percent remaining kinase activity relative to a vehicle-containing (DMSO) kinase reaction was calculated for each kinase/inhibitor pair. […] IC50 values were calculated using Prism 5 (GraphPad)."}, "FLT4": {"molecular_target": "FLT4 (Homo sapiens, UniProt P35916)", "assay": "HotSpot Kinase Assay, FLT4", "procedure": "as §1"}, "MEK1": {"molecular_target": "MEK1 (Homo sapiens, UniProt Q02750)", "sequence (Q02750 whole entry)": "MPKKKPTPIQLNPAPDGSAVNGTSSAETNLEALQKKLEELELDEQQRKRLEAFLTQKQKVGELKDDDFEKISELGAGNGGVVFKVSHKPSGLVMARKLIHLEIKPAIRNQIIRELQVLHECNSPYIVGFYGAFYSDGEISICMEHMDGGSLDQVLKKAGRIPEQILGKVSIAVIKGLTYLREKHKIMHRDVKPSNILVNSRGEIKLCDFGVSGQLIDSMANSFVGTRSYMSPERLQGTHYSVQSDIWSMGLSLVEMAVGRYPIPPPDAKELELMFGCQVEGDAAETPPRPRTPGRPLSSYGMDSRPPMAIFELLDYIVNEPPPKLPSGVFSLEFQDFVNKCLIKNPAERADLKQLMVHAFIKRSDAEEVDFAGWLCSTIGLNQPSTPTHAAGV", "assay": "HotSpot Kinase Assay, MEK1", "procedure": "as §1"}, "MEK5": {"molecular_target": "MEK5 (Homo sapiens, UniProt Q13163)", "assay": "HotSpot Kinase Assay, MEK5", "procedure": "as §1"}, "c-MER": {"molecular_target": "T2, c-MER (Homo sapiens, UniProt Q12866)", "T2 sequence (Q12866 21-999)": "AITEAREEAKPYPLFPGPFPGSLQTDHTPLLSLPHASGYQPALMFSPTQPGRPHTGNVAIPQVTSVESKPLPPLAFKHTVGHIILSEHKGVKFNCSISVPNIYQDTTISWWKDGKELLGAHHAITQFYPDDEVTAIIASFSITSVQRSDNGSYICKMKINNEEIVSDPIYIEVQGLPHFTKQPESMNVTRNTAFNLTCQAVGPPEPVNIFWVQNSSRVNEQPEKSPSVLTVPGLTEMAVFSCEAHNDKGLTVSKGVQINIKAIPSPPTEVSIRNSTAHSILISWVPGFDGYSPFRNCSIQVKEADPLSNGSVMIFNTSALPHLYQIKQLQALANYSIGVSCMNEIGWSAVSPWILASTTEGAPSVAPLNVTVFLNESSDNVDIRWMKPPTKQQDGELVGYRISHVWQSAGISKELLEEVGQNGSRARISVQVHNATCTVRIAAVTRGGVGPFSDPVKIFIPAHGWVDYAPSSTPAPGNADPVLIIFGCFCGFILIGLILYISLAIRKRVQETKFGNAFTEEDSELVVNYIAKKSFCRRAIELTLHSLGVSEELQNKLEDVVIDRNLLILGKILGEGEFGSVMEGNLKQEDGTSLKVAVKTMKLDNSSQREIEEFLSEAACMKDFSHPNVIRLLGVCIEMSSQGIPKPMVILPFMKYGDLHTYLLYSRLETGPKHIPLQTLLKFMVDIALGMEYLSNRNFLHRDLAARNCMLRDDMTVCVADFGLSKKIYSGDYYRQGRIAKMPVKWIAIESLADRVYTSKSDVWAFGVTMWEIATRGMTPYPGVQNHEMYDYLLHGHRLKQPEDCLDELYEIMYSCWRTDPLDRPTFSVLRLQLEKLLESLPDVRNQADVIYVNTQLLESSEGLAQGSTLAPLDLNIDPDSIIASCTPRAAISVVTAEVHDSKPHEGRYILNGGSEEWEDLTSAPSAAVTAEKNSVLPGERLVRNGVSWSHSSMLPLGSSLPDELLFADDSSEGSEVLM", "assay": "HotSpot Kinase Assay, c-MER", "procedure": "as §1"}, "c-MET": {"molecular_target": "c-MET (Homo sapiens, UniProt P08581)", "sequence (P08581 25-1390)": "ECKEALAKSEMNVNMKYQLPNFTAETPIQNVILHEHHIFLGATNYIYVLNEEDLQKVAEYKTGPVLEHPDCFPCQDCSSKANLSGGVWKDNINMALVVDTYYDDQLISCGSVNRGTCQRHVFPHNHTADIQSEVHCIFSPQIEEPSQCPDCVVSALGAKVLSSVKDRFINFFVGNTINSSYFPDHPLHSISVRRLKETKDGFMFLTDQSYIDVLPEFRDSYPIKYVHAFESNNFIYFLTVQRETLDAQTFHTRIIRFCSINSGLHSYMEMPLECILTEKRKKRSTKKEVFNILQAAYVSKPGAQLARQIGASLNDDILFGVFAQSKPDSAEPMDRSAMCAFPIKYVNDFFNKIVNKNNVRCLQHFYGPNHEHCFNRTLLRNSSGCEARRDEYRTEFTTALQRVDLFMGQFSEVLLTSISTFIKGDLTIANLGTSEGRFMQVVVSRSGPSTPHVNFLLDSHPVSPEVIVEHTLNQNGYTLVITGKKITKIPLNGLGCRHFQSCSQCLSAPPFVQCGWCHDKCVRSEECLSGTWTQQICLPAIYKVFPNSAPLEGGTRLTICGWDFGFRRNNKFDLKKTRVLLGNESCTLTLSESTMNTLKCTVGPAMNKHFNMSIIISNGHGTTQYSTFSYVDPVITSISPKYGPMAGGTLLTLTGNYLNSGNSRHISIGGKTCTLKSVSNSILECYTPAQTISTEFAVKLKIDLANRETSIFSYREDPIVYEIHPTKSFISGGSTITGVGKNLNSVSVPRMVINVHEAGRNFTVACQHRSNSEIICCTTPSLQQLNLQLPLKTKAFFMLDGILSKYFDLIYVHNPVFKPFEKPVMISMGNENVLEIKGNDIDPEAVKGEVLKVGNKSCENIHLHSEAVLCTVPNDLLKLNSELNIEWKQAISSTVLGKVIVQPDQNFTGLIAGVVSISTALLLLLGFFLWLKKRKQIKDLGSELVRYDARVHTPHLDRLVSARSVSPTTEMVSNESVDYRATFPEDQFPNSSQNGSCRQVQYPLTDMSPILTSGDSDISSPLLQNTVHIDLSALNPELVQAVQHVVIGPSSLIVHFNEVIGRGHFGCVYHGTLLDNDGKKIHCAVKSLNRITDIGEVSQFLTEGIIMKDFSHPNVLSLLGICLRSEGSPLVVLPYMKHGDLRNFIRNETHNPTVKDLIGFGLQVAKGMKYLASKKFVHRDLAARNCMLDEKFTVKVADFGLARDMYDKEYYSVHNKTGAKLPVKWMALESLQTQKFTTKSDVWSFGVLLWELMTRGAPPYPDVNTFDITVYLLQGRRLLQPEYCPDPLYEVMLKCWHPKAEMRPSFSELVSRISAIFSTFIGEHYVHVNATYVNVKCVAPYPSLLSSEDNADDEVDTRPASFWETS", "assay": "HotSpot Kinase Assay, c-MET", "procedure": "as §1"}, "EPHA2": {"molecular_target": "EPHA2 (Homo sapiens, UniProt P29317)", "assay": "HotSpot Kinase Assay, EPHA2", "procedure": "as §1"}, "EPHB4": {"molecular_target": "EPHB4 (Homo sapiens, UniProt P54760)", "assay": "HotSpot Kinase Assay, EPHB4", "procedure": "as §1"}, "EPHB2": {"molecular_target": "EPHB2 (Homo sapiens, UniProt P29323)", "assay": "HotSpot Kinase Assay, EPHB2", "procedure": "as §1"}, "EPHA4": {"molecular_target": "EPHA4 (Homo sapiens, UniProt P54764)", "sequence (P54764 20-986)": "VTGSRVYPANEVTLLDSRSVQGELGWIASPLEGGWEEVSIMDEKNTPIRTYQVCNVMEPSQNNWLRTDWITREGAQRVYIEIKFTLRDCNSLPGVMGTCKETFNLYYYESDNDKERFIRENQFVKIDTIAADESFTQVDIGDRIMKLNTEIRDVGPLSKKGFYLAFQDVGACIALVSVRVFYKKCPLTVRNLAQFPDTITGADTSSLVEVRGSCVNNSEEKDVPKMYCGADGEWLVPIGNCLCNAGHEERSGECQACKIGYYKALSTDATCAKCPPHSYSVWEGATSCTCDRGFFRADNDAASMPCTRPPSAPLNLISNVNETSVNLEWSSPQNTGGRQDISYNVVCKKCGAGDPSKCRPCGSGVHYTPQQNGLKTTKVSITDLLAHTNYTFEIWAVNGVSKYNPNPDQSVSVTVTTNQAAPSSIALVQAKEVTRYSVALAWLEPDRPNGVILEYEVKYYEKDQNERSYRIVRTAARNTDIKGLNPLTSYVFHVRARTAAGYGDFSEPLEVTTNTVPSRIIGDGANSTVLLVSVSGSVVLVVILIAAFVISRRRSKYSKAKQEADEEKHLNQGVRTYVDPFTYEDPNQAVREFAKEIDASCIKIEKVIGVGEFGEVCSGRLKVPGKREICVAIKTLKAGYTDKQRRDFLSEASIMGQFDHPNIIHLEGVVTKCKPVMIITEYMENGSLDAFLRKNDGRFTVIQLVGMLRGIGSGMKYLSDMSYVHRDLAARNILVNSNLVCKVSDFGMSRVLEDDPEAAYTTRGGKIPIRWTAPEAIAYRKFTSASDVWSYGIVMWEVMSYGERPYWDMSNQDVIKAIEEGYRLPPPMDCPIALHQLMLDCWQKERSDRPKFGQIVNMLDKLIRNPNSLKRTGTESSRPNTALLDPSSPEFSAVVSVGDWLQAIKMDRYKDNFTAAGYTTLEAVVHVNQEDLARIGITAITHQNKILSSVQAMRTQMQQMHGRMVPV", "assay": "HotSpot Kinase Assay, EPHA4", "procedure": "as §1"}, "EPHB1": {"molecular_target": "EPHB1 (Homo sapiens, UniProt P54762)", "sequence (P54762 18-984)": "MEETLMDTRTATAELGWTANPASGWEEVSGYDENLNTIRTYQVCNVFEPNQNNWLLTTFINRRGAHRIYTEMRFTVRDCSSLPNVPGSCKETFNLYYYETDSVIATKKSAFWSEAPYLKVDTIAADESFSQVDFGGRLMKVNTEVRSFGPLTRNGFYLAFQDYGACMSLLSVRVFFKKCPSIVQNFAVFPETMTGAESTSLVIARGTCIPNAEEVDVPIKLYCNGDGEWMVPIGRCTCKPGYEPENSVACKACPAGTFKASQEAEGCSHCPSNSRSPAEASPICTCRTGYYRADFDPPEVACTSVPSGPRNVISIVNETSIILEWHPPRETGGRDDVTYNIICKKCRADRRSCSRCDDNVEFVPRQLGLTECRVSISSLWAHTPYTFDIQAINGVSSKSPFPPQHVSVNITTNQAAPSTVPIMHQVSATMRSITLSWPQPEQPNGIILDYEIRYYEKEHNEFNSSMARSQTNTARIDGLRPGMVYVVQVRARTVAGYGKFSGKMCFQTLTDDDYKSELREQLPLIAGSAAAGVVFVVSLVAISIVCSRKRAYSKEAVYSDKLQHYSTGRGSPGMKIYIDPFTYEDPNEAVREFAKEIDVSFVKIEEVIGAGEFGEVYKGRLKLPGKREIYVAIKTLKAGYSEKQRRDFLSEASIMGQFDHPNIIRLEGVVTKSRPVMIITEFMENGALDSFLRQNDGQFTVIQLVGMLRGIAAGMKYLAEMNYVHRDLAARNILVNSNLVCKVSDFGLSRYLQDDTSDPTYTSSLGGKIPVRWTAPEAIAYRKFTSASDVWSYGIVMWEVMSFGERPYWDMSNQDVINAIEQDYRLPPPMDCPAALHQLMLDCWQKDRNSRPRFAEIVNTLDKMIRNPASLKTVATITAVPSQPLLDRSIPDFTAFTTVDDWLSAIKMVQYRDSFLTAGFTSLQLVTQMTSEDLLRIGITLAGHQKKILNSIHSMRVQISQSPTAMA", "assay": "HotSpot Kinase Assay, EPHB1", "procedure": "as §1"}, "PLK4/SAK": {"molecular_target": "PLK4/SAK (Homo sapiens, UniProt O00444)", "assay": "HotSpot Kinase Assay, PLK4/SAK", "procedure": "as §1"}, "FRK/PTK5": {"molecular_target": "FRK/PTK5 (Homo sapiens, UniProt P42685)", "assay": "HotSpot Kinase Assay, FRK/PTK5", "procedure": "as §1"}, "SLK/STK2": {"molecular_target": "SLK/STK2 (Homo sapiens, UniProt Q9H2G2)", "sequence (Q9H2G2 whole entry)": "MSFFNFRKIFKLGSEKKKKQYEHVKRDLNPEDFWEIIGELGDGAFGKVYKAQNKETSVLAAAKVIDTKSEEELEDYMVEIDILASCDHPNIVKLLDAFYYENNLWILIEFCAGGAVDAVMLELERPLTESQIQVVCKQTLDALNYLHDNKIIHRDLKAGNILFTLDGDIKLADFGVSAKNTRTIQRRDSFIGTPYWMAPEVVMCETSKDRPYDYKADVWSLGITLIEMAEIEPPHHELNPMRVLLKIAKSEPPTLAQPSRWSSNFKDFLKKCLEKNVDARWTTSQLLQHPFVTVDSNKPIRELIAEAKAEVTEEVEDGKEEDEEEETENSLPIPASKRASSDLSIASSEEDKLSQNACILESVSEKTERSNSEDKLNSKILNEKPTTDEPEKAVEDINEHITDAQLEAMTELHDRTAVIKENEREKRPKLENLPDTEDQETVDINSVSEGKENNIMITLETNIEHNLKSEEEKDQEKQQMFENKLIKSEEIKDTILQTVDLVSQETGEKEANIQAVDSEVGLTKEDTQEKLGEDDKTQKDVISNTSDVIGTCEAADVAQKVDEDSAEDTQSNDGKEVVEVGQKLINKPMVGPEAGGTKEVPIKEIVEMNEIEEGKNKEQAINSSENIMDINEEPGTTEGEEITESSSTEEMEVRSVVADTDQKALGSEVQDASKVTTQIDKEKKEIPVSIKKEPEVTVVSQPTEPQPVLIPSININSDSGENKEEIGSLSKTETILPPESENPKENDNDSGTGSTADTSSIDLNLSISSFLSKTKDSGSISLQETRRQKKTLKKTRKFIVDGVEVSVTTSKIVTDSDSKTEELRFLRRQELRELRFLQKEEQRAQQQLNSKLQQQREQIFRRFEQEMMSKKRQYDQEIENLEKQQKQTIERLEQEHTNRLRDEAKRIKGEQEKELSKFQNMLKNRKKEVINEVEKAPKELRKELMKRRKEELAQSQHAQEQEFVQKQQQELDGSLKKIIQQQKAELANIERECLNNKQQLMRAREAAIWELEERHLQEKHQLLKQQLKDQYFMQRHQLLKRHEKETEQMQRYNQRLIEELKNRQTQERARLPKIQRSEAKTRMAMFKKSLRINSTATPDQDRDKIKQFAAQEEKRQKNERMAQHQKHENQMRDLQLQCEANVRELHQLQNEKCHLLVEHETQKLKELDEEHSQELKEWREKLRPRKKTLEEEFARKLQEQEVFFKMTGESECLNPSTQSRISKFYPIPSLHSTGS", "assay": "HotSpot Kinase Assay, SLK/STK2", "procedure": "as §1"}, "KDR/VEGFR2": {"molecular_target": "KDR/VEGFR2 (Homo sapiens, UniProt P35968)", "assay": "HotSpot Kinase Assay, KDR/VEGFR2", "procedure": "as §1"}}, "data": [{"smiles": "COc1cc2c(Oc3ccc(NC(=O)C4(C(=O)Nc5ccc(F)cc5)CC4)cc3)ccnc2cc1OC(=O)N1CCN(C)CC1", "note": "[Compound 1-10]", "values": [{"measurement": "IC50", "setting": "AXL", "value": "< 100", "unit": "nM"}, {"measurement": "IC50", "setting": "BRK", "value": "< 100", "unit": "nM"}, {"measurement": "IC50", "setting": "FLT4", "value": "100 to 1000", "unit": "nM"}, {"measurement": "IC50", "setting": "MEK1", "value": "> 1000", "unit": "nM"}, {"measurement": "IC50", "setting": "MEK5", "value": "> 1000", "unit": "nM"}, {"measurement": "IC50", "setting": "c-MER", "value": "< 100", "unit": "nM"}, {"measurement": "IC50", "setting": "c-MET", "value": "< 100", "unit": "nM"}, {"measurement": "IC50", "setting": "EPHA2", "value": "< 100", "unit": "nM"}, {"measurement": "IC50", "setting": "EPHB4", "value": "100 to 1000", "unit": "nM"}, {"measurement": "IC50", "setting": "EPHB2", "value": "100 to 1000", "unit": "nM"}, {"measurement": "IC50", "setting": "EPHA4", "value": "100 to 1000", "unit": "nM"}, {"measurement": "IC50", "setting": "EPHB1", "value": "100 to 1000", "unit": "nM"}, {"measurement": "IC50", "setting": "PLK4/SAK", "value": "> 1000", "unit": "nM"}, {"measurement": "IC50", "setting": "FRK/PTK5", "value": "> 1000", "unit": "nM"}, {"measurement": "IC50", "setting": "SLK/STK2", "value": "> 1000", "unit": "nM"}, {"measurement": "IC50", "setting": "KDR/VEGFR2", "value": "100 to 1000", "unit": "nM"}]}]}
